Source: patent US20240197722A1, “ANTICANCER COMPOSITION INDUCING CELL SENESCENCE AND CELL DEATH” (OSTEONEUROGEN INC., priority 2021, published 2024)

Assays:
A549 cells [1] = assay: Immunocytochemistry for cell senescence morphology in A549 cells; type: cell-based; details: for effect of inducing cancer cell-specific cell senescence: summary of chromone scaffold derivatives, FIG. 21; for cell flatness (morphological change of cell senescence): A549, 20 μM each, 72 hours, FIG. 1
Description: The cells were incubated with Rhodamine Phalloidin (Thermo Fisher, Massachusetts, US) for 4 hours at room temperature. After washing, the cells were incubated with Alexa Fluor 488 (Abcam, Cambridge, UK)-conjugated secondary antibody. Images were analyzed by using EVOS M7000 (Invitrogen, CA, USA). Nuclei were counterstained with DAPI.

A549 cells [2] = assay: Immunocytochemistry of p53, p21 and p16 in A549 cells; type: cell-based
Description: A549 cell line was treated with 1, 5, 10 and 20 μM of the compound of the present invention (ONG41008), respectively, and after 24 or 72 hours, the cells were fixed by using 4% paraformaldehyde, permeabilized with 0.4% TritonX100 and blocked with 1% BSA. The cells were incubated with Anti-p53 (Cell Signaling Technology, Beverly, MA), Anti-p21 (Abcam, Cambridge, UK) and Anti-p16-INK4A (Proteintech, IL, USA) at room temperature for 4 hours. After washing, the cells were incubated with Alexa Fluor 488 (Abcam, Cambridge, UK)-conjugated secondary antibody. Images were analyzed by using EVOS M7000 (Invitrogen, CA, USA). Nuclei were counterstained with DAPI.

A549 cells [3] = assay: Western blot of p53, phospho-p53, p21 and p16 in A549 cells; type: cell-based
Description: After 24 hours, the cell lysates were clarified by centrifugation at 14,000×g for 10 minutes, and the supernatant was collected. Protein concentration was quantified by Bradford assay (Thermo Fisher, Massachusetts, USA). Afterwards, 25 μg of cellular protein was loaded onto a 10% SDS-PAGE gel and transferred to a nitrocellulose membrane. After blocking with 5% BSA, the membrane was incubated overnight at 4° C. with Anti-p53 (Cell Signaling Technology, Beverly, MA), Anti-phosphor-p53 (Cell Signaling Technology, Beverly, MA), Anti-p21 (Abcam, Cambridge, UK), Anti-p16-INK4A (Proteintech, IL, USA) and Anti-GAPDH (Abcam, Cambridge, UK). After thorough washing, the membrane was incubated with HRP-conjugated secondary antibody. Protein bands were visualized by using ECL reagent (Abfrontier, Korea) and Uvitec HD9 (UVITEC, UK).

A549 cells [4] = assay: Cell changes of TGFβ-stimulated A549 cells; type: cell-based; details: TGFβ-stimulated A549, 10 μM
A549 cells [5] = assay: Immunocytochemistry for cell senescence and multinucleation of A549 cells over time; type: cell-based; details: A549, 10 μM
Text: ZEB1, which is an epithelial-mesenchymal transition (EMT) positive regulator, was used as an expression control.

A549 cells [6] = assay: Western blot of cell cycle kinases in A549 cells; type: cell-based; details: A549, 50 μM, 24 hours
A549 cells [7] = assay: PI staining cell cycle analysis of A549 cells; type: cell-based; details: A549, 50 μM
Description: After 24 hours, the cells were harvested and fixed in cooled 70% ethanol, and then stained with propidium iodide containing 200 ug/mL RNase (Abcam, 139418) in the dark at 37° C. for 30 minutes. Each phase of the cell cycle was identified by using Accuri C6 Plus (BD Bioscience).

A549 cells [8] = assay: NAD+/NADH colorimetric assay in A549 cell lysates; type: cell-based
Description: To this end, total NAD was extracted and quantified from A549 cell lysates by using the NAD+/NADH Colorimetric Assay Kit (Abcam, ab65348) according to the manufacturer's protocol. 1×10^6 cells were lysed in 400 μL NAD/NADH extraction buffer, filtered through a 10 kD spin column (ab93349) and measured in pure water or 1/5 dilution. Briefly, the amount of total NAD was calculated by dividing the standard curve (pmol) by the sample volume (μL) added to the reaction wells and multiplying by the dilution factor.

A549 cells [9] = assay: Intracellular ROS (H2DCFDA) in A549 cells; type: cell-based; details: A549, various concentrations, 24 hours
Description: To this end, 1×10^4 cells/mL of A549 cells were dispensed in 96-well plates, and after 24 hours, the cells were treated with 10 μM H2DCFDA (Invitrogen, CA) and incubated at 37° C. in the dark for 1 hour. […] Intracellular ROS were examined by fluorescence microscopy (Thermo, MA) and quantified by fluorescence spectroscopy (Perkin Elmer, MA).

A549 cells [10] = assay: TUNEL and 7AAD apoptosis analysis of A549 cells; type: cell-based
Description: The TUNEL analysis was performed by using the TUNEL assay kit (Abcam, ab66110) according to the manufacturer's instructions. […] After 24 hours, the cells were harvested and fixed in cold 70% ethanol, and 50 μL of a DNA labeling solution (10 μL of TdT reaction buffer, […], 8 μL of Br-dUTP, 32.5 μL of ddH2O) was added thereto. After 1-hour incubation at 37° C., the cells were washed twice with 300 μL of rinse buffer, and an antibody solution (5 μL of Anti-BrdU-Red antibody, 95 μL rinse buffer) was prepared and added to the washed cells, and the cells were incubated in the dark at room temperature for 30 minutes. 300 μL of 7-AAD/RNase solution was added at last. Each sample was analyzed by using Accuri C6 Plus (BD Bioscience).

H358 cells [11] = assay: CCK-8 cell proliferation assay in H358 cells; type: cell-based; details: for inhibition of proliferation: H358, 30 μM or more, 72 hours
Description: (§1) H358 cells were seeded in 96-well plates at a concentration of 3×10^4 cells/well for 24 hours.

H358 cells [12] = assay: Microscopic observation of H358 cells; type: cell-based; details: H358, 10 μM, 72 hours
Description: as §1

H1299 cells = assay: Immunocytochemistry for multinucleation of H1299 cells; type: cell-based; details: H1299, treated by concentration
PANC1 = assay: CCK-8 cell proliferation assay in PANC1 cells; type: cell-based, human; details: for IC50: Homo sapiens, PANC-1, PANC1, CCK-8, 72 hours
PANCI cells = assay: Immunocytochemistry for multinucleation of PANC1 cells; type: cell-based, human; details: PANC1, treated by concentration
MCF7 = assay: CCK-8 cell proliferation assay in MCF7 cells; type: cell-based; details: Homo sapiens; MCF7, CCK-8, 72 hours
MCF7 cells = assay: Immunocytochemistry for multinucleation of MCF7 cells; type: cell-based, human; details: MCF7, treated by concentration
PC3 = assay: CCK-8 cell proliferation assay in PC3 cells; type: cell-based; details: Homo sapiens, PC-3; PC3, CCK-8, 72 hours
PC3 cells [13] = assay: Caspase-3/7 activity (apoptosis) in PC3 cells; type: cell-based, human; details: PC3, Caspase-3/7 activity; for PC3 apoptosis: various concentrations
Description: Caspase-3/7 activity was measured by using a Caspase-3/7 assay kit (Promega, G8091). […] Afterwards, Caspase-3/7 activity was analyzed according to the manufacturer's protocol.

PC3 cells [14] = assay: Immunocytochemistry for multinucleation of PC3 cells; type: cell-based, human; details: PC3, treated by concentration
[15] = tested on: Normal human lung fibroblasts (NHLF); assay: CCK-8 cell proliferation assay in normal human lung fibroblasts; type: cell-based; details: CCK-8, FIG. 19
NHLF cells [16] = assay: Mitochondrial membrane potential (MTMP) analysis in NHLF; type: cell-based, human; details: for apoptosis in normal cells: measured with MTMP, Caspase3 and LDH, FIG. 20
normal cells = assay: Additional Caspase3/7 analysis in normal cells; type: cell-based, human; details: data not shown
A549 cells [17] = assay: Mitochondrial membrane potential (TMRE) analysis in A549 cells
NHLF cells [18] = assay: Caspase-3 activity assay in NHLF; type: cell-based; details: Homo sapiens, read-out: Caspase3: EC 50
Description: (ii) Caspase-3 activity assay was measured by using a Caspase-3 assay kit (Abcam, ab37401). […] Thereafter, protein was measured with BCA (Thermo, 23227), and the protein was adjusted to 50 μg per 50 μL of cell lysis buffer. Afterwards, Caspase-3 activity was analyzed according to the manufacturer's protocol.

NHLF cells [19] = assay: LDH cytotoxicity assay in NHLF; type: cell-based; details: Homo sapiens, read-out: LDH: EC 50
Description: (iii) LDH cytotoxicity assay detected LDH release by using an LDH assay kit (Abcam, ab56393). […] Absorbance values were measured at 450 nm in a microplate reader.

[20] = A549, mitochondrial membrane potential analysis

SMILES: O=c1cc(-c2ccc(O)cc2)oc2cc(O)cc(O)c12 [Apigenin]
- effect of inducing cancer cell-specific cell senescence (A549 cells [1]): does not induce

SMILES: COc1c(O)cc2oc(-c3ccc(O)cc3)cc(=O)c2c1O [Histidulin, Hispidulin]
- effect of inducing cancer cell-specific cell senescence (A549 cells [1]): do not exert any effect

SMILES: COc1cc(-c2cc(=O)c3c(O)c(OC)c(O)cc3o2)ccc1O [Jaceocidin, Jaceosidin]
- effect of inducing cancer cell-specific cell senescence (A549 cells [1]): do not exert any effect

SMILES: COc1ccc(-c2cc(=O)c3c(O)c(OC)c(O)cc3o2)cc1OC [ONG21001, Eupatilin]
- cell flatness (morphological change of cell senescence) (A549 cells [1]): specifically observed

SMILES: COc1ccc(-c2cc(=O)c3c(O)c(OC)c(OCCN4CCNC(=O)C4)cc3o2)cc1OC [ONG41008]
- cell flatness (morphological change of cell senescence) (A549 cells [1]): specifically observed
- TP53 nuclear localization (A549 cells [2]; A549, 1 μM, 24 hours): nuclear localization was observed
- TP53 protein expression level (A549 cells [2]; A549, 1 μM, 24 hours): not changed
- p16 expression (A549 cells [2]; A549, 1, 5, 10 and 20 μM, 24 hours): up-regulated in proportion to the concentration
- p21 expression and localization (A549 cells [2]; A549, 24 hours): nuclear localized with upregulation
- p16 induction (A549 cells [3]; A549, 24 hours): induced in a concentration-dependent manner
- p21 induction (A549 cells [3]; A549, 24 hours): induced in a concentration-dependent manner
- total amount of TP53 (A549 cells [3]; A549, 24 hours): maintained to be the same
- TP53 phosphorylation (A549 cells [3]; A549, various concentrations, 24 hours): phosphorylated in proportion to the increase in the concentration
- day from which a significant portion of cells started to die (A549 cells [4]): 6 days
- day on which complete apoptosis was induced (A549 cells [4]): 15 days
- time of treatment with the greatest number of multinucleation (A549 cells [5]): 48 h
- cell flattening (A549 cells [5]; 24 hours): clearly confirmed
- multinucleation (A549 cells [5]; 24 hours): multinucleation was also observed
- CDK2 expression (A549 cells [6]): inhibited
- CDK6 expression (A549 cells [6]): inhibited
- cell cycle arrest (A549 cells [7]): arrest of the G1-S-G2 phase
- NAD biosynthesis (A549 cells [8]; A549): increased
- NAD/NADH ratio (change) (A549 cells [8]; A549, FIG. 7c): significantly increased
- ROS (A549 cells [9]): increased in a concentration-dependent manner
- apoptosis (A549 cells [10]; A549, 48 hours of treatment): apoptosis was observed
- apoptosis (A549 cells [10]; A549, 72 hours of treatment): clearly observed in a compound concentration-dependent manner
- inhibition of proliferation (H358 cells [11]): inhibited the proliferation of non-small cell lung cancer cells to a similar level
- difference between IC50 of paclitaxel and ONG41008 (H358 cells [11]; H358, 72 hours, FIG. 9): 14 fold
- mitotic disruption (H358 cells [12]): observed
- multinucleation (H1299 cells): observed
- IC50 (PANC1): 11.8 µM
- inhibitory effect on proliferation compared to paclitaxel (PANC1; PANC1, 10 μM or more): more excellent inhibitory effect
- multinucleation (PANCI cells): observed
- IC50 (MCF7): 15.4 µM
- multinucleation (MCF7 cells): observed
- IC50 (PC3): 32 µM
- EC50 (PC3 cells [13]; Homo sapiens, PC-3): 20.4 µM
- PC3 apoptosis (PC3 cells [13]): induced PC3 apoptosis in a concentration-dependent manner
- multinucleation (PC3 cells [14]): observed
- cell proliferation of normal cells [15]: did not inhibit cell proliferation
- apoptosis in normal cells (NHLF cells [16]): did not induce significant apoptosis
- caspase3/7 activity in normal cells (normal cells): did not induce caspase3/7 activity
- difference between IC50 of SAHA and ONG41008 (A549 cells [17]; A549, FIG. 6): ~20 fold
- day until which inhibitory effect increased, all cells removed (A549 cells [17]; [20]): 4 days
- time at which decrease of cell viability / inhibitory effect started (A549 cells [17]; [20]): 48 h

SMILES: O=C(CCCCCCC(=O)Nc1ccccc1)NO [SAHA, suberoylanilide hydroxamic acid]
- PC3 apoptosis (PC3 cells [13]): induced PC3 apoptosis in a concentration-dependent manner
- cell proliferation of normal cells [15]: inhibited cell proliferation
- apoptosis in normal cells (NHLF cells [16]): induced strong apoptosis

SMILES: COC(=O)c1ccc2c(c1)NC(=O)/C2=C(\Nc1ccc(N(C)C(=O)CN2CCN(C)CC2)cc1)c1ccccc1 [nintedanib]
- cell proliferation of normal cells [15]: inhibited cell proliferation
- IC50 (NHLF cells [16]; Homo sapiens, read-out: MTMP: IC 50): 41 µM
- apoptosis in normal cells (NHLF cells [16]): induced strong apoptosis
- EC50 (NHLF cells [18]): 128 µM
- EC50 (NHLF cells [19]): 218 µM

SMILES: CC(=O)O[C@H]1C(=O)[C@@]2(C)[C@H]([C@H](OC(=O)c3ccccc3)[C@]3(O)C[C@H](OC(=O)[C@H](O)[C@@H](NC(=O)c4ccccc4)c4ccccc4)C(C)=C1C3(C)C)[C@]1(OC(C)=O)CO[C@@H]1C[C@@H]2O [paclitaxel, reference compound]
- inhibition of proliferation (H358 cells [11]): inhibited the proliferation of non-small cell lung cancer cells to a similar level
- IC50 (PANC1): 84.7 µM
